Results on 71 compounds are retold here after ChEMBL document CHEMBL1154198, “Chemical genetics of Plasmodium falciparum” (Nature, 2010).

In experiment [1] the test system is Plasmodium falciparum. Description: ST_JUDE: Plasmodium falciparum 3D7 EC50 (uM) as measured by SYBR green dye. The format is functional, organism-based.
For experiment [2], the system named is Plasmodium falciparum. Description: ST_JUDE: Plasmodium falciparum K1 EC50 (uM) as measured by SYBR green dye. The format is functional, organism-based.

What is called EC50 is the concentration giving half of the maximal effect. The low end stands for greater potency, the high end for weaker potency. Take `Fc1ccc(Nc2nc(NCCN3CCOCC3)nc3c2cnn3-c2ccccc2)cc1`: the EC50 with Plasmodium falciparum [1] was greater than 15 µM; in the experiment on Plasmodium falciparum [2], 6.75 µM.
On the same counts, the results for `Cc1ccc(Nc2nc(N)c3ccccc3n2)cc1C` are 1.33 µM and 3.91 µM.
On the same counts, the results for `O=C(Cc1ccc(Br)cc1)OCC(=O)c1ccc(F)cc1` are greater than 15 µM and greater than 15 µM.
On the same counts, the results for `CCCCOc1ccc(S(=O)(=O)Nc2ccc(Nc3nc(C)cc(N(C)C)n3)cc2)cc1` are 1.66 µM and greater than 15 µM.
`CCC1(C)CC(CCNCc2ccc(F)cc2)(c2ccc(F)cc2)CCO1` (configuration not stated): the EC50 was determined as 1.15 µM with Plasmodium falciparum [1] and 0.518 µM in the experiment on Plasmodium falciparum [2].
On the same counts, the results for `CC(C)(C)c1ccc(O)c(CN2CCN(c3ccccc3)CC2)c1` are 1.1 µM and 0.51 µM.
With `CC(=O)N(C1=C(N2CCCCC2)C(=O)c2ccccc2C1=O)c1ccc(F)cc1`, the EC50 in the experiment with Plasmodium falciparum [1] was found to be 2.72 µM; in the experiment with Plasmodium falciparum [2], 3.89 µM.
On the same counts, the results for `Cc1ccc(Nc2cc(C)nc(-n3cc([N+](=O)[O-])cn3)n2)cc1` are 7.25 µM and greater than 15 µM.
For the compound `Cc1cc(N2CCC(N(C)C3CCCC3)CC2)nc2cc(O)ccc12`, the EC50 in the experiment on Plasmodium falciparum [1] was 1.54 µM; in the experiment with Plasmodium falciparum [2], greater than 15 µM.
Take `O=C(Nc1cccc(Cl)c1)N1CCn2cccc2C1c1ccc(F)c(F)c1` (configuration not stated): the values for the EC50 in the experiment on Plasmodium falciparum [1] and in the experiment on Plasmodium falciparum [2] were 10.3 µM and 6.67 µM, respectively.
On to `Cc1ccc(-c2nc3ccccc3o2)cc1NC(=O)C(Cl)(Cl)Cl`, for which the EC50 with Plasmodium falciparum [1] came to 4.07 µM; in the experiment with Plasmodium falciparum [2], 1.7 µM.
For `CCCc1cc(O)nc(-n2nc(C)cc2NC(=O)COc2ccc(OC)cc2)n1` the same measures were greater than 15 µM and greater than 15 µM.
As to `CCOc1ccc(CCNC(=O)Nc2cc(C(F)(F)F)cc(C(F)(F)F)c2)cc1OC`, the EC50 in the experiment on Plasmodium falciparum [1] was determined as 2.83 µM; in the experiment with Plasmodium falciparum [2], 5.6 µM.
On the same counts, the results for `Cc1cc(NC(=O)CSc2ccc3nnc(-c4ccc(Cl)cc4)n3n2)no1` are greater than 15 µM and greater than 15 µM.
For `O=C(Nc1cccc(C(F)(F)F)c1)c1cc2ccccc2oc1=O` the same measures were greater than 15 µM and greater than 15 µM.
On the same counts, the results for `CCOc1c(Br)cc(C2C(C#N)=C(N)Oc3cc4c(cc32)OCO4)cc1OC` (configuration not stated) are 2.32 µM and 2.73 µM.
Take `Oc1c(C(Nc2ccccn2)c2cccc(Oc3ccccc3)c2)ccc2cccnc12` (configuration not stated): the values for the EC50 in the experiment on Plasmodium falciparum [1] and in the experiment with Plasmodium falciparum [2] were 2.92 µM and 2.76 µM, respectively.
For `COc1ccc(S(=O)(=O)Nc2cc3sc(=O)oc3c3ccccc23)cc1` the same measures were greater than 15 µM and greater than 15 µM.
Regarding `CCOc1cc(/C=N/N=C(N)N)ccc1OCc1ccccc1`, the EC50 with Plasmodium falciparum [1] was 0.867 µM; in the experiment on Plasmodium falciparum [2], 6.56 µM.
For `CCOC(=O)C1=C(c2ccccc2)N=C(S)NC1c1cc(Cl)ccc1OC` (configuration not stated) the same measures were greater than 15 µM and greater than 15 µM.
For `CCOC(=O)c1c(CN(CC)CC)n(-c2ccccc2)c2cc(Br)c(O)cc12` the same measures were 1.78 µM and 3.45 µM.
With `CC(C)c1ccccc1Oc1c(C(F)(F)F)oc2c(CN3CCCC3)c(O)ccc2c1=O`, the EC50 in the experiment on Plasmodium falciparum [1] is 1.58 µM; in the experiment with Plasmodium falciparum [2] it was 1 µM.
For `Cc1n(C)c2ccccc2[n+]1CC(=O)c1ccc([N+](=O)[O-])cc1` the same measures were 1.61 µM and 2.09 µM.
As for `CNC(=O)C(=O)N1CCC2(CC1)OCCN2S(=O)(=O)c1ccc(C)cc1`, the EC50 with Plasmodium falciparum [1] and in the experiment with Plasmodium falciparum [2] was greater than 15 µM each time.
Take `Cc1ccc(-c2n(C)c3ccccc3[n+]2C)cc1`: the EC50 was 11.9 µM in the experiment with Plasmodium falciparum [1] and greater than 15 µM with Plasmodium falciparum [2].
For `CCOc1ccc(-c2nonc2NC(=O)C(C)C)cc1OCC` the same measures were 1.39 µM and 1.8 µM.
On the same counts, the results for `CCCO/C(O)=C1\C(C)=NC2=C(C(=O)CC(c3ccccc3)C2)C1c1cc(Cl)c(O)c(OC)c1` (configuration not stated) are 3.35 µM and 2.88 µM.
For `O=[N+]([O-])c1ccc(C2N(Cc3ccccc3)CCN2Cc2ccccc2)cc1` the same measures were greater than 15 µM and greater than 15 µM.
Take `NS(=O)(=O)c1ccc(NC(=O)Cc2ccc([N+](=O)[O-])cc2)cc1`: the EC50 with Plasmodium falciparum [1] and in the experiment on Plasmodium falciparum [2] was greater than 15 µM throughout.
As to `CCc1ccc(OCC2c3cc(OC)c(OC)cc3CCN2C(=O)COc2ccccc2)cc1` (configuration not stated), the EC50 with Plasmodium falciparum [1] and with Plasmodium falciparum [2] was greater than 15 µM throughout.
Regarding `Cc1ccc(Nc2nc(NCCO)c3ccccc3n2)cc1C`, the EC50 in the experiment with Plasmodium falciparum [1] turned out to be 0.843 µM; with Plasmodium falciparum [2], 2.27 µM.
For `Cc1c(C(=O)Nc2ccc(Cl)cc2Cl)cccc1[N+](=O)[O-]` the same measures were greater than 15 µM and greater than 15 µM.
With `C#CCOc1ccc(C2C(C#N)=C(N)Oc3c2ccc2ccccc32)cc1OC` (configuration not stated), the figures for the EC50 in the experiment on Plasmodium falciparum [1] and with Plasmodium falciparum [2] were 0.414 µM and 4.08 µM, respectively.
On the same counts, the results for `CCOC(=O)N1CCN(C(=O)CN(Cc2ccc(Cl)cc2)S(=O)(=O)c2ccc(C)cc2)CC1` are 2.53 µM and 1.32 µM.
For `COc1ccc(OC)c2sc(N(Cc3cccnc3)C(=O)c3cccc(C)c3)nc12` the same measures were greater than 15 µM and 2.33 µM.
Regarding `CN1C=CC(=Cc2sc3ccccc3[n+]2C)C=C1`, the EC50 with Plasmodium falciparum [1] amounted to 0.873 µM; in the experiment with Plasmodium falciparum [2] it was 0.389 µM.
For `COc1cc(CN(Cc2cccnc2)C(=O)c2[nH]c3ccc(Cl)cc3c2C)ccc1OC1CCOC1` (configuration not stated) the same measures were greater than 15 µM and greater than 15 µM.
As to `COc1ccc(-n2c(C)cc(/C=c3\sc4nc5ccccc5n4c3=O)c2C)cc1`, the EC50 with Plasmodium falciparum [1] and in the experiment on Plasmodium falciparum [2] was greater than 15 µM each time.
On to `CCc1n(CC(O)COc2ccccc2OC)c2ccccc2[n+]1CC` (configuration not stated), for which the EC50 with Plasmodium falciparum [1] and in the experiment with Plasmodium falciparum [2] was greater than 15 µM throughout.
On to `COC(=O)c1cn(NC(=O)c2cccc(F)c2)c(=O)c2ccccc12`, for which the values for the EC50 in the experiment on Plasmodium falciparum [1] and with Plasmodium falciparum [2] were 6.66 µM and greater than 15 µM, respectively.
For the compound `Cc1ccc(C(C)C)c(OCc2nc3ccccc3n2C)c1`, the EC50 with Plasmodium falciparum [1] and in the experiment on Plasmodium falciparum [2] was greater than 15 µM throughout.
As for `CCc1ccc(C(Nc2ccccn2)c2cc(Cl)c3cccnc3c2O)cc1` (configuration not stated), the concentration for a half-maximal effect (EC50) with Plasmodium falciparum [1] is 4.41 µM; with Plasmodium falciparum [2], greater than 15 µM.
On the same counts, the results for `CCc1ccc(N(CC)C(=O)c2cc3cc4ccc(OC)cc4nc3o2)cc1` are greater than 15 µM and greater than 15 µM.
For `OC(CN1CCN(C/C=C/c2ccccc2)CC1)Cn1c2ccccc2c2ccccc21` (configuration not stated) the same measures were 1.4 µM and 0.65 µM.
For `CCCCN(CC)CCNC(=O)c1cc2c(-c3ccccc3F)nn(C)c2s1` the same measures were 2.07 µM and greater than 15 µM.
As to `Oc1c(C(Nc2ccccn2)c2cccc(OC3CCCC3)c2)ccc2cccnc12` (configuration not stated), the EC50 in the experiment on Plasmodium falciparum [1] came out at 3.71 µM; in the experiment with Plasmodium falciparum [2], 4.16 µM.
Take `CC(=O)N(C1=C(N2CCCC2)C(=O)c2ccccc2C1=O)C1CCCCC1`: the results for the EC50 in the experiment with Plasmodium falciparum [1] and in the experiment with Plasmodium falciparum [2] were 0.28 µM and 0.399 µM, respectively.
`Cc1n[nH]c(-c2ccc(OC(C)C)cc2O)c1Oc1ccccc1`: the 50% effective concentration (EC50) with Plasmodium falciparum [1] is 5.66 µM; in the experiment with Plasmodium falciparum [2], 2.91 µM.
For `CCCOc1ccc(-c2nonc2NC(=O)c2cccc(C)c2)cc1OCCC` the same measures were greater than 15 µM and 1.05 µM.
For `CN1C(=O)C(=Cc2ccc(-c3ccc(O)c(C(=O)O)c3)o2)C(=O)N(C)C1=O` the same measures were greater than 15 µM and greater than 15 µM.
For `CN(C)c1ccc(Nc2c3ccccc3nc3ccccc23)cc1` the same measures were 1.46 µM and 1.11 µM.
Take `CCCC1=Nc2cc(C(=O)N3CCN(C(=O)OCC)CC3)ccc2Sc2ccc(C)cc21`: the EC50 in the experiment with Plasmodium falciparum [1] and in the experiment with Plasmodium falciparum [2] was greater than 15 µM throughout.
With `CCCN1CCC(N2CCCC(C(=O)c3ccc4cc(OC)ccc4c3)C2)CC1` (configuration not stated), the EC50 with Plasmodium falciparum [1] is 5 µM; with Plasmodium falciparum [2], greater than 15 µM.
On the same counts, the results for `COc1ccc2sc(N(Cc3cccnc3)C(=O)c3ccc(C#N)cc3)nc2c1` are greater than 15 µM and greater than 15 µM.
On the same counts, the results for `CCCCCCCCn1cnc2ccccc21` are greater than 15 µM and greater than 15 µM.
For the compound `CCN(CC)C(=O)CSc1nc2cc(OC)c(OC)cc2c2nc(-c3ccccc3)nn12`, the EC50 is greater than 15 µM with Plasmodium falciparum [1] and 0.335 µM with Plasmodium falciparum [2].
`COc1ccc(C2C(C(=O)Nc3ccc(C)cc3Br)c3ccccc3C(=O)N2C)cc1` (configuration not stated): the EC50 with Plasmodium falciparum [1] stood at 3.46 µM; in the experiment with Plasmodium falciparum [2] it was 3.77 µM.
Consider `CC1CN(C(=O)c2ccc(I)cc2)CC(C)O1` (configuration not stated), for which the EC50 was 2.73 µM with Plasmodium falciparum [1] and 1.52 µM in the experiment with Plasmodium falciparum [2].
For `Cn1c(-c2ccccc2)[n+](C)c2ccccc21` the same measures were 11.7 µM and 8.29 µM.
On the same counts, the results for `CCOC(=O)c1cnc2c(C(F)(F)F)cccc2c1Nc1cc(C)ccc1O` are 2.53 µM and 3.09 µM.
Take `Cc1ccc2c(c1)C=C/C(=C\c1cccc[n+]1C)N2C`: the results for the EC50 in the experiment with Plasmodium falciparum [1] and in the experiment with Plasmodium falciparum [2] were 0.19 µM and 0.138 µM, respectively.
For `O=C(Nc1cc(Cl)cc(Cl)c1)Nc1ccc(Cl)c(Cl)c1` the same measures were 0.772 µM and 0.496 µM.
With `C=CCOC(=O)C1=C(C)N=C(C)/C(=C(\O)OCC=C)C1c1ccc(OC)c(OC)c1` (configuration not stated), the EC50 in the experiment on Plasmodium falciparum [1] was determined as 4.4 µM; in the experiment with Plasmodium falciparum [2] it was 5.93 µM.
On to `COc1ccc(N2CCN(C(CNC(=O)CC(C)(C)C)c3ccc4c(c3)OCO4)CC2)cc1` (configuration not stated), for which the EC50 with Plasmodium falciparum [1] came out at 4.28 µM; in the experiment on Plasmodium falciparum [2] it was 2.01 µM.
As for `CCOc1ccc(C2N(C)c3ccccc3N2C)cc1`, the EC50 with Plasmodium falciparum [1] and with Plasmodium falciparum [2] was greater than 15 µM in each case.
Turning to `O=C(Cc1ccc(Cl)cc1)Nc1cc(C(F)(F)F)cc(C(F)(F)F)c1`, the EC50 with Plasmodium falciparum [1] is greater than 15 µM; in the experiment on Plasmodium falciparum [2], 5.13 µM.
On the same counts, the results for `Cc1ccc2nc(-c3cccnc3)cc(C(=O)Nc3ccc(S(=O)(=O)NC(C)(C)C)cc3)c2c1` are greater than 15 µM and greater than 15 µM.
For `Cc1ccc2nc(C)cc(Nc3cccc(C(F)(F)F)c3)c2c1` the same measures were 0.879 µM and 6.01 µM.
`COc1ccc(-c2cc(=O)oc3c(OC)c(OC)ccc23)cc1`: the EC50 in the experiment with Plasmodium falciparum [1] and in the experiment with Plasmodium falciparum [2] was greater than 15 µM throughout.
On to `CCOC(=O)c1ccccc1NC(=S)N1CCCN(Cc2ccc(NC(C)=O)cc2)CC1`, for which the figures for the EC50 in the experiment with Plasmodium falciparum [1] and in the experiment on Plasmodium falciparum [2] were 1.66 µM and 2.5 µM, respectively.
Consider `COc1ccc(CN2CCNC(=O)C2CC(=O)NCCOC(C)C)c(OC)c1` (configuration not stated), for which the EC50 with Plasmodium falciparum [1] and in the experiment with Plasmodium falciparum [2] was greater than 15 µM in each case.
